# Experimental data published in article PMC11241769, “Comprehensive Characterization of Phytochemical Composition, Membrane Permeability, and Antiproliferative Activity of Juglans nigra Polyphenols” (International Journal of Molecular Sciences, 2024).
# Where two headings read alike, the source gives them in different places.
# Experiments:
# [1] = test system: A2058 human melanoma cells; assay: in vitro cytostatic (antiproliferative) activity, Alamar Blue (resazurin) assay, A2058; format: cell-based; conditions: for IC50: in vitro cytostatic activity, Alamar Blue (resazurin) assay, A2058 melanoma cell culture, read-out: IC50 (µM) A2058
# Description: (§1) For the evaluation of the in vitro antiproliferative activity of the compounds, the cell viability was determined by resazurin (Alamar Blue) assay on MDA-MB 231 breast carcinoma, A2058 melanoma, and HT-29 colon carcinoma cell culture. The control wells were treated only with serum-free medium.
# (§2) The cytostatic effect of the compounds was studied on tumor cell cultures in vitro. MDA-MB-231 human breast adenocarcinoma cells were cultured in DMEM medium supplemented with 10% FBS, 2 mM L-glutamine, penicillin–streptomycin antibiotics mixture (50 IU/mL, and 50 μg/mL, respectively), 1 mM sodium pyruvate, and 1% non-essential amino acid mixture. A2058 human melanoma cells, and HT-29 colorectal carcinoma cells were cultured in RPMI medium supplemented with 10% FBS, 2 mM L-glutamine, and penicillin–streptomycin antibiotics mixture (50 IU/mL and 50 μg/mL, respectively). Cell lines were generous gifts from Dr. József Tóvári (Department of Experimental Pharmacology, National Institute of Oncology, Budapest, Hungary).
# (§3) All cell cultures were maintained at 37 °C in a humidified atmosphere with 5% CO2. The cells were grown to confluence and then divided into 96-well tissue culture plates with the initial cell number of 5.0 × 10^3 cells/well. […] Control cells were treated with serum-free medium or DMSO (c = 1.0 v/v %) at the same conditions. After this incubation period, cells were washed twice with serum-free medium, and following that, they were cultured for another 72 h in a 10% serum-containing medium at 37 °C. After that, cell viability was determined using the Alamar Blue assay. Alamar Blue is a non-toxic, resazurin-based dye that living cells reduce to a fluorescent molecule, resorufin [99]. Resazurin sodium salt (Merck, Darmstadt, Germany) was dissolved in PBS at c = 0.15 mg/mL, pH 7.4). A measure of 22 uL of the dye was added to each well and incubated at 37 °C for 3 h until the pink color of the reduced dye appeared. Fluorescence intensity in each well was measured using a Synergy H4 multimode microplate reader (BioTek, Winooski, VT); at λex = 530/30 and λem = 610/10 nm.
# (§4) The cytostasis values were expressed in the percentage of untreated control.
# [2] = test system: HT-29 colorectal carcinoma cells; assay: in vitro cytostatic (antiproliferative) activity, Alamar Blue (resazurin) assay, HT-29; format: cell-based; conditions: Homo sapiens
# Description: as §1, §2, §3, §4
# [3] = PAMPA-GI (parallel artificial membrane permeability assay, phosphatidylcholine membrane); format: in vitro ADME; conditions: for logPe PAMPA-GI (n = 9): donor pH 6.8, acceptor pH 7.4, 37 °C, 4 h, n.d. = not detected in the acceptor phase; for Papp at 4 h, 100 µM: PAMPA, read-out: logPe PAMPA-GI (n = 9) (converted)
# Description: (§5) For the PAMPA-BBB test, 5 μL of porcine polar brain lipid extract (PBLE) solution (16.0 mg PBLE + 8.0 mg cholesterol dissolved in 600.0 μL n-dodecane) was applied for each well of the 96-well polycarbonate-based filter donor plates (top plate) (Multiscreen™-IP, MAIPN4510, pore size 0.45 μm; Merck). For the PAMPA-GI assay, the wells of the top plate were coated with 5 μL of the mixture of 16.0 mg phosphatidylcholine + 8.0 mg cholesterol dissolved in 600.0 μL n-dodecane. A measure of 150.0 μL of aliquots of the filtrated donor solutions were placed on the membrane. The 96-well PTFE acceptor plates (bottom plates) (Multiscreen Acceptor Plate, MSSACCEPTOR; Merck), were filled with 300.0 μL buffer solution (0.01 M PBS buffer, pH 7.4). The donor plate was placed upon the acceptor plate, and both plates were incubated together at 37 °C for 4 h in a Heidolph Titramax 1000 Vibrating platform shaker (Heidolph, Schwabach, Germany).
# (§6) After incubation, sandwich plates were separated and the concentrations of each compound in the starting donor solution and in the acceptor and donor wells were determined in triplicate by UHPLC-DAD method described above. […] The effective permeability and the membrane retention in the PAMPA-BBB and the PAMPA GI experiments were calculated by Equations (4)–(7), respectively:(4) Pe=−2.303/A(t−τSS)·VA·VD/VA+VD·lg1−VA+VD/1−MR·VD×CAt/CD0 (5) Pe=−2.303/A(t−τSS)·1/1+ra·lg−ra+1+ra/1−MR×CDt/CD0 where Pe is the effective permeability coefficient (cm/s), A is the filter area (0.24 cm^2), VD and VA are the volumes in the donor (0.15 cm^3) and acceptor phases (0.30 cm^3), t is the incubation time (s), τSS is the time (s) to reach steady-state (240 s), CD(t) is the concentration (mol/cm^3) of the compound in the donor phase at time t, CD(0) is the concentration (mol/cm^3) of the compound in the donor phase at time 0, and MR is the estimated membrane retention factor (the estimated mole fraction of solute lost to the membrane), ra is the sink asymmetry ratio (gradient-pH-induced), defined as:(6) ra=VD/VA×Pe(A→D)/Pe(D→A) (7) MR=1−CDt/CD0−VA/VDCAt/CD0
# (§7) All experiments were performed in three triplicates on three consecutive days (n = 9), caffeine standard was used as positive, while rutin as negative control. ClogP values were calculated by ChemAxon Marvin 22.3.
# [4] = test system: Vero E6 non-tumorous kidney cells; assay: selectivity study: cytostatic activity on non-tumorous Vero E6 cells, Alamar Blue assay; format: cell-based, African green monkey (C. sabaeus); conditions: for IC50: Chlorocebus sabaeus
# Description: (§8) To determine the selectivity, we assessed the compounds on the Vero E6 non-tumorous kidney cells from African green monkeys (C. sabaeus), and their cytostatic activity was determined (Table 3).
# (§9) For the selectivity study, a non-human primate cell culture was used. Vero E6 cells were established from kidney tissue sampled from an African green monkey (C. sabaeus) They originated from a primary culture initiated in March 1962 by Yoshihiro Yasumura at Chiba University in Japan. Vero E6 cells were obtained from the European Collection of Authenticated Cell Cultures (ECACC 85020206) and maintained in DMEM high-glucose (4.5 g/L) medium (Lonza, Basel, Switzerland) containing 10% FBS (Gibco, Thermo Fisher Scientific) and supplemented with 2 mM of L-glutamine (Lonza), 1 mM sodium pyruvate (Merck), and CellCultureGuard (PanReacApplichem, ITW Reagents, Darmstadt, Germany) at 37 °C in a humidified atmosphere of 5% CO2.
# as §3, §4
# [5] = PAMPA-BBB (parallel artificial membrane permeability assay, porcine polar brain lipid extract); format: in vitro ADME; conditions: for logPe PAMPA-BBB (n = 9): donor pH 7.4, acceptor pH 7.4, 37 °C, 4 h, n.d. = not detected in the acceptor phase; for Papp at 4 h, 100 µM: pig, PAMPA, pH 7.4, read-out: logPe PAMPA-BBB (n = 9) (converted)
# Description: as §5, §6, §7
# [6] = test system: MDA-MB-231 human breast adenocarcinoma cells; assay: in vitro cytostatic (antiproliferative) activity, Alamar Blue (resazurin) assay, MDA-MB 231; format: cell-based; conditions: in vitro cytostatic activity, Alamar Blue (resazurin) assay, MDA-MB 231 breast carcinoma cell culture, read-out: IC50 (µM) MDA-MB 231
# Description: as §1, §2, §3, §4
# [7] = chemical stability in the aqueous solutions/buffer of the PAMPA experiments (UHPLC-DAD); conditions: PAMPA, 100 µM
# Description: Quantities of the isolated compounds in the PAMPA experiments (14, 58, 74, 86, 92, 106, 141, and 143) were determined by UHPLC-DAD. The Juglans extracts were analyzed by an ACQUITY UPLC H-Class PLUS System equipped with a quaternary solvent delivery pump (QSM), an auto-sampler manager (FTN), a column compartment (CM), and a photodiode array (PDA) detector (Waters Corporation). An Acquity BEH C18 column (100 × 2.1 mm i.d., 1.7 µm; Waters Corporation) maintained at 30 °C was used as stationary phase. Eluent A was 0.3% acetic acid in water and eluent B was acetonitrile, the following gradient elution was applied (flow rate: 0.3 mL/min): 5.0–100.0% B (0.0–11.0 min), 100.0–5.0% B (11.0–11.5 min), 5% B (11.5–15.0 min). The injection volume was 5 µL and chromatograms were recorded at 200–400 nm. The chromatograms acquired at the UV absorption maxima of each compound were used for data evaluation.
# Stock solutions (10 mM in methanol) were diluted with the defined buffer (pH 7.4 for the PAMPA-BBB and pH 6.8 for the PAMPA-GI assays) to obtain the donor solutions (composition: 594.0 μL buffer + 6.0 μL stock solution). The buffers were prepared as follows: pH = 6.8: 20.2 g Na2HPO4 ∙ 7H2O and 3.4 g NaH2PO4 ∙ H2O dissolved in distilled water to achieve the final volume of 1000.0 mL, pH adjustment with 0.5 M NaOH or 0.5 M HCl; pH = 7.4: one PBS tablet (Phosphate Buffered Saline, pH 7.4; Sigma Aldrich) dissolved in 200.0 mL distilled water. Donor solutions were filtered through Phenex-RC 15 mm, 0.2 μm syringe filters (Gen-Lab Ltd., Budapest, Hungary).
# [8] = test system: MDA-MB 231, A2058, HT-29 and Vero E6 cells; assay: in vitro cytostasis, Alamar Blue assay, cell lines taken together; format: cell-based; conditions: tumor cell lines (MDA-MB 231, A2058, HT-29)
# Description: as §1, §8, §2, §9, §3, §4
# [9] = in vitro cytostatic activity, Alamar Blue (resazurin) assay, HT-29 colon carcinoma cell culture, read-out: IC50 (µM) HT-29
# [10] = Vero C1008, in vitro cytostatic activity, Alamar Blue assay, Vero E6 non-tumorous kidney cells, read-out: IC50 (µM) VERO E6 Non Tumorous
Structure (SMILES),IC50 [1],"IC50 [2, 9]",logPe PAMPA-GI (n = 9) [3],"IC50 [4, 10]",logPe PAMPA-BBB (n = 9) [5],IC50 [6],"inhibition at 100 µM ([1]; read-out: % inhibition at 100 µM, 100 µM, A2058 cell culture)","Papp at 4 h, 100 µM [3]",additional minor compounds appeared in the aqueous solutions prepared for the PAMPA experiments [7],"Papp at 4 h, 100 µM [5]",effect on the tumor cell lines [8],"IC50 ([4]; Vero C1008, read-out: IC50 (cytostatic activity) on the Vero E6 cells)","inhibition at 100 µM ([2]; read-out: % inhibition at 100 µM, 100 µM, HT-29 cell culture)","IC50 ([2]; HT-29 colon carcinoma, treatment overnight, then 72 h culture, Alamar Blue, read-out: IC50 on HT-29 cell culture)","IC50 (cytostatic activity) on the Vero E6 cells ([4]; Vero E6 non-tumorous kidney cells, selectivity)"
"O=C(O)c1cc(O)c(O)c(O)c1 [Compound 14, gallic acid]",57.2 ± 4.7 µM,71.2 ± 7.9 µM,not detected in the acceptor phase,49.9 ± 2.8 µM,not detected in the acceptor phase,49.8 ± 3.5 µM,–,–,–,–,–,–,–,–,–
"CCOC(=O)c1cc(O)c(O)c(O)c1 [Compound 58, ethyl gallate]",102.5 ± 0.7 µM,> 100 µM,–,82.1 ± 5.7 µM,–,> 100 µM,56.4%,3.72 ×10⁻⁶ cm/s,< 5%,1.7 ×10⁻⁶ cm/s,–,–,–,–,–
"O=C(OCC1OC(OC2CCC(=O)c3ccc(O)c(O)c32)C(O)C(O)C1O)c1cc(O)c(O)c(O)c1 [Compound 92, 1,2,3,4-tetrahydro-7,8-dihydroxy-4-oxonaphthalen-1-yl-6-O-[(3,4,5-trihydroxyphenyl)carbonyl]-β-D-glucopyranoside]",> 100 µM,> 100 µM,not detected in the acceptor phase,61.1 ± 5.3 µM,not detected in the acceptor phase,> 100 µM,–,–,–,–,no effect,–,–,–,–
"CC1OC(Oc2c(-c3ccc(O)c(O)c3)oc3cc(O)cc(O)c3c2=O)C(O)C(O)C1O (stereo not drawn) [Compound 106, quercetin-3-O-rhamnoside (quercitrin)]",–,–,not detected in the acceptor phase,–,not detected in the acceptor phase,–,–,–,–,–,no effect,15.9 µM,–,–,–
"O=c1oc2c(O)c(O)cc3c(=O)oc4c(O)c(O)cc1c4c23 [Compound 143, ellagic acid]",> 100 µM,> 100 µM,less than −6.0,> 100 µM,less than −6.0,> 100 µM,–,0.741 ×10⁻⁶ cm/s,–,0.224 ×10⁻⁶ cm/s,–,–,33%,12.1 µM,not cytostatic
